pIC50: −log10 of the molar value. Where two headings read alike, the source gives them in different places.
Legend:
Format in all cases: biochemical
[1] = target: ADAM17 (TACE) (Homo sapiens, UniProt P78536); test: TACE fluorometric inhibition assay (Enzo kit BML-AK310)
Experimental: (§1) The inhibitory activities of the compounds of the invention were assessed in 96-well microplate format using MMP1, MMP2, MMP9 and MMP13 colorimetric assay kits and TACE fluorometric assay kit from Enzo Life Sciences, Inc. The inhibitory effect of the compounds of the invention on ADAM10 activity were evaluated in 96-well microplate format using fluorometric assay from AnaSpec, Inc.
The TACE Fluorometric Drug Discovery Kit (catalog #BML-AK310) is a complete assay system designed to screen ADAM17 (TACE) inhibitors using a quenched fluorogenic peptide: Mca-PLAQAV-Dpa-RSSSR—NH2. Mca fluorescence is quenched by the Dpa group until cleavage by proteases separates the two moieties leading to an increase in Mca fluorescence.
The inhibitory activity of the compounds of the invention against TACE was tested according to the manufacturer's assay protocol and the fluorescence was monitored at excitation/emission wavelengths=320 nm/420 nm using Tecan Infinite® 200 Pro F Nano^+ microplate reader.
(§2) The normalized values were analyzed using GraphPadPrism 9 for Windows (GraphPad Software, San Diego, CA, USA) software by plotting inhibition curves and determining the IC50 values (in nM).

[2] = target: T1, MMP2 (Homo sapiens, UniProt P08253); test: MMP-2 colorimetric inhibition assay (Enzo kit BML-AK408)
T1 sequence (P08253 110-660): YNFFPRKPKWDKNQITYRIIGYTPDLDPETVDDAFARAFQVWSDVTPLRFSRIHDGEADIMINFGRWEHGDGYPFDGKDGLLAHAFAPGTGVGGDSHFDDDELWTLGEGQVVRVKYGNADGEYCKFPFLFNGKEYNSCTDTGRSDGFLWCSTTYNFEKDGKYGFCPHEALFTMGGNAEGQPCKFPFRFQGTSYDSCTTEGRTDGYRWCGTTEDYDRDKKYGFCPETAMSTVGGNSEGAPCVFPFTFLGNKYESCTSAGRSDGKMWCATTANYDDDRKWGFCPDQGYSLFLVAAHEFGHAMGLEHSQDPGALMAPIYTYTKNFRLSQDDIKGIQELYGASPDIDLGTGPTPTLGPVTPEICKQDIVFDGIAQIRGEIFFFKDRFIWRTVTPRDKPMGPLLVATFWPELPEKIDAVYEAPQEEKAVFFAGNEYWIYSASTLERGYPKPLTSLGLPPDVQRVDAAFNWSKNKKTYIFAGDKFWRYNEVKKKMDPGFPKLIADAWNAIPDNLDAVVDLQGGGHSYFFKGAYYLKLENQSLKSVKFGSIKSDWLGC
Experimental: as §1
(§3) The MMP-2 Colorimetric Drug Discovery Kit (catalog #BML-AK408) is a complete assay system designed to screen MMP-2 inhibitors using a thiopeptide as a chromogenic substrate (Ac-PLG-[2-mercapto-4-methylpentanoyl]-LG-OC2H5). The MMP cleavage site peptide bond is replaced by a thioester bond in the thiopeptide. Hydrolysis of this bond by an MMP produces a sulfhydryl group, which reacts with DTNB [5,5′-dithiobis(2-nitrobenzoic acid), Ellman's reagent] to form 2-nitro-5-thiobenzoic acid, that can be detected spectrophotometrically.
(§4) The inhibitory activities of the compounds of the invention against MMP1, MMP2, MMP9 and MMP13 were tested according to the manufacturer's assay protocols and the absorbance at 415 nm was monitored using the Tecan Infinite® 200 Pro F Nano^+ microplate reader.
as §2

[3] = target: T2, MMP13 (Homo sapiens, UniProt P45452); test: MMP-13 colorimetric inhibition assay (Enzo kit BML-AK412)
T2 construct: purchased Enzo Life Sciences, Inc. BML-AK412
Experimental: as §1
as §3, with “MMP-13” for “MMP-2”, “#BML-AK412)” for “#BML-AK408)”, “screen” for “screen MMP-2”, “inhibitors of matrix metalloproteinase-13” for “inhibitors”
as §4, §2

[4] = target: MMP9 (Homo sapiens, UniProt P14780); test: MMP-9 colorimetric inhibition assay (Enzo kit BML-AK410)
MMP9, sequence (P14780 94-707): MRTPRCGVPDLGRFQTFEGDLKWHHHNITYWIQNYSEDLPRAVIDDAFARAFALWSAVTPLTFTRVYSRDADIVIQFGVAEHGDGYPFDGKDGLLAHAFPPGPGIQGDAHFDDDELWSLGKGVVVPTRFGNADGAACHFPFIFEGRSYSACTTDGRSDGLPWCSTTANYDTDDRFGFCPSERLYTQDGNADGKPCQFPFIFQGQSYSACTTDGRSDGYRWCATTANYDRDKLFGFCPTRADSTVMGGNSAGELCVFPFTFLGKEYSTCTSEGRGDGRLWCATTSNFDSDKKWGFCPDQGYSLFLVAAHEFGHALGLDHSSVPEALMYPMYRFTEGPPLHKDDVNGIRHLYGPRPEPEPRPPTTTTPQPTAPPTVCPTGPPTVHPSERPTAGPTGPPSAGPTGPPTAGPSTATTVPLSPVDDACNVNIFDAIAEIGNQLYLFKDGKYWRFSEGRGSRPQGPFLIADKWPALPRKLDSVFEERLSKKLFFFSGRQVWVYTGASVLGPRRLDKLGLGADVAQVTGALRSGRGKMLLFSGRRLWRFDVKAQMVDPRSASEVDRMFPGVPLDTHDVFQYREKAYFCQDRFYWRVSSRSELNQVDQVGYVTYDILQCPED
Experimental: as §1
as §3, with “MMP-9” for “MMP-2”, “#BML-AK410)” for “#BML-AK408)”, “screen” for “screen MMP-2”, “inhibitors of matrix metalloproteinase-9” for “inhibitors”
as §4, §2

[5] = target: T3, MMP1 (Homo sapiens, UniProt P03956); test: MMP-1 colorimetric inhibition assay (Enzo kit BML-AK404)
T3 sequence (P03956 100-269 limits assumed): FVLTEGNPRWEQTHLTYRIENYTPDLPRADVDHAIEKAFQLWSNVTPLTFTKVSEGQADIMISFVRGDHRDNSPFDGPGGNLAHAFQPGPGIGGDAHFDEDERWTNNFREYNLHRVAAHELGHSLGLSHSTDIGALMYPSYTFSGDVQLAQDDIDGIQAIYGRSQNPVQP
Experimental: as §1
as §3, with “MMP-1” for “MMP-2”, “#BML-AK404)” for “#BML-AK408)”, “screen” for “screen MMP-2”, “inhibitors of matrix metalloproteinase-1” for “inhibitors”
as §4, §2

[6] = quenched fluorogenic peptide, ex/em 320/420 nm, read-out: TACE IC50 class
[7] = thiopeptide substrate, absorbance 415 nm, read-out: MMP 2 IC50 class
[8] = thiopeptide substrate, absorbance 415 nm, read-out: MMP 13 IC50 class
[9] = thiopeptide substrate, absorbance 415 nm, read-out: MMP 9 IC50 class
[10] = thiopeptide substrate, absorbance 415 nm, read-out: MMP 1 IC50 class

ADAM17 (TACE), sequence (P78536 215-477 limits assumed): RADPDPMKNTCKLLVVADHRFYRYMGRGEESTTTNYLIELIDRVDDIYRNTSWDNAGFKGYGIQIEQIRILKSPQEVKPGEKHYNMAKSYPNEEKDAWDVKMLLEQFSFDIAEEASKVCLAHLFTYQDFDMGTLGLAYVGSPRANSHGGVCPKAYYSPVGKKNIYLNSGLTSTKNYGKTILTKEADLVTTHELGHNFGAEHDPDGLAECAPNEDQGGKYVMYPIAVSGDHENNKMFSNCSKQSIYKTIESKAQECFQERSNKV

SMILES	pIC50 [1, 6]	pIC50 [2, 7]	pIC50 [3, 8]	pIC50 [4, 9]	pIC50 [5, 10]	pIC50 [1]	pIC50 [2]	pIC50 [3]	pIC50 [4]	pIC50 [5]
COCCOC(=O)N1[C@@H]2CC[C@H]1[C@H](C(=O)NO)N(S(=O)(=O)c1ccc(Oc3cncc(F)c3)nc1)C2 [Example 23, 2-methoxyethyl (1S,2R,5R)-3-((6-((5-fluoropyridin-3-yl)oxy)pyridin-3-yl)-sulfonyl)-2-(hydroxycarbamoyl)-3,8-diaza-bicyclo[3.2.1]octane-8-carboxylate]	5.00 to 6.00	> 7.30	6.00 to 7.30	6.00 to 7.30	6.00 to 7.30	–	–	–	–	–
COCCOC(=O)N1[C@@H]2CC[C@H]1[C@H](C(=O)NO)N(S(=O)(=O)c1ccc(Oc3ccc(C(C)(C)O)cc3)nc1)C2 [Example 26, 2-methoxyethyl (1S,2R,5R)-2-(hydroxycarbamoyl)-3-((6-(4-(2-hydroxy-propan-2-yl)-phenoxy)pyridin-3-yl)sulfonyl)-3,8-diazabicyclo[3.2.1]-octane-8-carboxylate]	5.00 to 6.00	> 7.30	6.00 to 7.30	6.00 to 7.30	< 5.00	–	–	–	–	–
COCCOC(=O)N1[C@@H]2CC[C@H]1[C@H](C(=O)NO)N(S(=O)(=O)c1ccc(Oc3cnc(OC)nc3)nc1)C2 [Example 27, 2-methoxyethyl (1S,2R,5R)-2-(hydroxycarbamoyl)-3-((6-((2-methoxy-pyrimidin-5-yl)oxy)-pyridin-3-yl)-sulfonyl)-3,8-diaza-bicyclo[3.2.1]octane-8-carboxylate]	5.00 to 6.00	> 7.30	6.00 to 7.30	6.00 to 7.30	< 5.00	–	–	–	–	–
CCn1cc(Oc2ccc(S(=O)(=O)N3C[C@H]4CC[C@@H]([C@@H]3C(=O)NO)N4C(=O)OCCOC)cn2)cn1 [Example 35, 2-methoxyethyl (1S,2R,5R)-3-((6-((1-ethyl-1H-pyrazol-4-yl)-oxy)pyridin-3-yl)-sulfonyl)-2-(hydroxycarbamoyl)-3,8-diaza-bicyclo[3.2.1]octane-8-carboxylate]	6.00 to 7.30	> 7.30	> 7.30	> 7.30	6.00 to 7.30	–	–	–	–	–
COCCOC(=O)N1[C@@H]2CC[C@H]1[C@H](C(=O)NO)N(S(=O)(=O)c1ccc(Oc3cnn(C(C)C)c3)nc1)C2 [Example 37, 2-methoxyethyl (1S,2R,5R)-2-(hydroxycarbamoyl)-3-((6-((1-isopropyl-1H-pyrazol-4-yl)-oxy)pyridin-3-yl)-sulfonyl)-3,8-diazabicyclo-[3.2.1]octane-8-carboxylate]	6.00 to 7.30	6.00 to 7.30	6.00 to 7.30	6.00 to 7.30	5.00 to 6.00	–	–	–	–	–
COCCOC(=O)N1[C@@H]2CC[C@H]1[C@H](C(=O)NO)N(S(=O)(=O)c1ccc(Oc3cnn(CC(C)C)c3)nc1)C2 [Example 38, 2-methoxyethyl (1S,2R,5R)-2-(hydroxycarbamoyl)-3-((6-((1-isobutyl-1H-pyrazol-4-yl)oxy)pyridin-3-yl)sulfonyl)-3,8-diazabicyclo-[3.2.1]octane-8-carboxylate]	6.00 to 7.30	6.00 to 7.30	6.00 to 7.30	6.00 to 7.30	5.00 to 6.00	–	–	–	–	–
COCCOC(=O)N1[C@@H]2CC[C@H]1[C@H](C(=O)NO)N(S(=O)(=O)c1ccc(Oc3cnn(-c4ccc(F)cc4)c3)nc1)C2 [Example 40, 2-methoxyethyl (1S,2R,5R)-3-((6-((1-(4-fluorophenyl)-1H-pyrazol-4-yl)oxy)pyridin-3-yl)sulfonyl)-2-(hydroxycarbamoyl)-3,8-diazabicyclo-[3.2.1]octane-8-carboxylate]	6.00 to 7.30	> 7.30	> 7.30	> 7.30	6.00 to 7.30	–	–	–	–	–
COCCOC(=O)N1[C@@H]2CC[C@H]1[C@H](C(=O)NO)N(S(=O)(=O)c1cc(F)c(Oc3cnn(C)c3)c(F)c1)C2 [Example 42, 2-methoxyethyl (1S,2R,5R)-3-((3,5-difluoro-4-((1-methyl-1H-pyrazol-4-yl)oxy)phenyl)sulfonyl)-2-(hydroxycarbamoyl)-3,8-diazabicyclo[3.2.1]octane-8-carboxylate]	6.00 to 7.30	6.00 to 7.30	6.00 to 7.30	6.00 to 7.30	5.00 to 6.00	–	–	–	–	–
COCCOC(=O)N1[C@@H]2CC[C@H]1[C@H](C(=O)NO)N(S(=O)(=O)c1ccc(Oc3ccc(OCF)cc3)nc1)C2 [Example 43, 2-methoxyethyl (1S,2R,5R)-3-((6-(4-(fluoromethoxy)phenoxy)pyridin-3-yl)sulfonyl)-2-(hydroxycarbamoyl)-3,8-diazabicyclo[3.2.1]octane-8-carboxylate]	5.00 to 6.00	> 7.30	> 7.30	> 7.30	5.00 to 6.00	–	–	–	–	–
COCCOC(=O)N1[C@@H]2CC[C@H]1[C@H](C(=O)NO)N(S(=O)(=O)N1CCC(Oc3ccc(Cl)cc3)C1)C2 (stereo partly drawn) [Example 46, 2-methoxyethyl (1S,2R,5R)-3-((3-(4-chloro-phenoxy)-pyrrolidin-1-yl)-sulfonyl)-2-(hydroxy-carbamoyl)-3,8-diazabicyclo-[3.2.1]octane-8-carboxylate]	–	–	–	–	–	6.00 to 7.30	6.00 to 7.30	6.00 to 7.30	6.00 to 7.30	< 5.00
COCCOC(=O)N1[C@@H]2CC[C@H]1[C@H](C(=O)NO)N(S(=O)(=O)N1CCC(Oc3ccc(F)cc3)C1)C2 (stereo partly drawn) [Example 47, 2-methoxyethyl (1S,2R,5R)-3-((3-(4-fluoro-phenoxy)-pyrrolidin-1-yl)-sulfonyl)-2-(hydroxy-carbamoyl)-3,8-diazabicyclo-[3.2.1]octane-8-carboxylate]	–	–	–	–	–	6.00 to 7.30	5.00 to 6.00	5.00 to 6.00	5.00 to 6.00	< 5.00
COCCOC(=O)N1[C@@H]2CC[C@H]1[C@H](C(=O)NO)N(S(=O)(=O)N1CCC(Oc3ccnc(C(F)(F)F)c3)CC1)C2 [Example 49, 2-methoxyethyl (1S,2R,5R)-2-(hydroxy-carbamoyl)-3-((4-((2-(trifluoro-methyl)pyridin-4-yl)oxy)-piperidin-1-yl)-sulfonyl)-3,8-diazabicyclo-[3.2.1]octane-8-carboxylate]	5.00 to 6.00	6.00 to 7.30	6.00 to 7.30	6.00 to 7.30	< 5.00	–	–	–	–	–
